Laboratory results taken from publication PMC9521575, “Multiple tachykinins and their receptors characterized in the gastropod mollusk Pacific abalone: Expression, signaling cascades, and potential role in regulating lipid metabolism” (Frontiers in Endocrinology, 2022).
One block for each molecule: values may come before it. Non-standard residues stand in square brackets, D forms with d. Residues, ends and D or L forms follow the SMILES beside them. No end group written: not given here. pGlu = O=C1CC[C@@H](C(=O)O)N1

How the values were obtained:
[1] = tested on: Hdh-TKRL-mediated phosphorylation of ERK1/2; assay: Western blotting of ERK1/2 phosphorylation in Hdh-TKRL-transfected HEK293 cells; assay type: cell-based, Human; conditions: inhibitor 10^-5 M pre-incubated 60 min, then Hdh-TK2-2 for 5 min, western blot
Experimental: (§1) HEK293 cells were seeded into 6-well plates (0.3 × 10^6 cells/well) and transfected with 3 μg of pcDNA3-HA-Hdh-TKR plasmids or vehicle pcDNA3-HA plasmid as described for the luciferase reporter assays. At 24 h after transfection, the cells were incubated with serum-free DMEM for 6 h at 37°C and then exposed to a PKA inhibitor (H89, 10^-5 M; Sigma-Aldrich) or PKC inhibitor (Gö6983, 10^-5 M; Sigma-Aldrich) for 60 min. After the medium was replace with fresh serum-free DMEM, the cells were exposed to Hdh-TK-2-2 peptide (5×10^-9 or 10^-7 M) or TPA (10^-7 M) for a further 5 min. The methods employed for cell lysate preparation, polyacrylamide gel electrophoresis, protein transfer to nitrocellulose membranes, and membrane washing were from a previous report ([39]). The membranes were incubated with a monoclonal mouse p44/42 MAPK, rabbit phospho-p44/42 MAPK (ERK1/2) (Thr202/Tyr204) (Cell Signaling, Danvers, MA, USA), or mouse GAPDH (Santa Cruz Biotechnology, Santa Cruz, CA, USA) primary antibody at 4°C for 16 h, followed by incubation with goat anti-mouse IgG-HRP or goat anti-rabbit IgG-HRP secondary antibody (Santa Cruz Biotechnology, Santa Cruz, CA, USA) at room temperature for 2 h. […]

[2] = tested on: Hdh-TKRS-mediated phosphorylation of ERK1/2; assay: Western blotting of ERK1/2 phosphorylation in Hdh-TKRS-transfected HEK293 cells; assay type: cell-based, Human; conditions: inhibitor 10^-5 M pre-incubated 60 min, then Hdh-TK2-2 for 5 min, western blot
Experimental: as §1

[3] = tested on: Hdh-TKRL; assay: Ca2+ mobilization assay (aequorin luminescence) in Hdh-TKRL-transfected CHO-K1 cells; assay type: cell-based, Haliotis discus hannai; conditions: Hdh-TKRL- and aequorin-expressing CHO-K1 cells; luminescence relative to maximal response at 10^-6 M; n = 3 or 4; read-out: EC50 on intracellular Ca2+ mobilization
Experimental: (§2) Ca^2+ mobilization assays were performed as described previously ([39]). Briefly, Chinese hamster ovary K1 (CHO-K1) cells were maintained in DMEM-F12 Nutrient Mixture Ham supplemented with 10% FBS (Hyclone) and 1% P/S (Invitrogen) at 37°C in 5% CO2. Cells were grown in a monolayer to 60% confluency in 100 mm dishes (1.5 × 10^6 cells) and transiently transfected with 2 μg of pcDNA3-HA-Hdh-TKR plasmid with 2 μg of a Ca^2+-reporter aequorin plasmid and 2 μg of Gαq plasmid using 18 μL of FuGENE6 transfection reagent (Promega). The cells were washed in assay buffer including phenol red-free DMEM/F-12 with 0.1% bovine serum albumin (BSA) and 1% P/S and collected by brief centrifugation. Probenecid (1.25 mM final concentration, Invitrogen) and coelenterazine (5 μM, Gold Biotech., St. Louis, MO, USA) were added to resuspended CHO-K1 cells in 5 mL of assay buffer and the cells were gently agitated for 2.5 h using a magnetic stirrer at room temperature and shielded from light. […] While stirring gently, 50 μL of the cell suspension was injected into a luminescence microplate reader (Berthold Tech.), and luminescence was recorded for 20 s and for a further 10 s after injection of the assay buffer, including 0.2% Triton X-100 to measure the total Ca^2+ response. […]

[4] = tested on: Hdh-TKRS; assay: Ca2+ mobilization assay (aequorin luminescence) in Hdh-TKRS-transfected CHO-K1 cells; assay type: cell-based, Haliotis discus hannai; conditions: Hdh-TKRS- and aequorin-expressing CHO-K1 cells; luminescence relative to maximal response at 10^-6 M; n = 3 or 4; read-out: EC50 on intracellular Ca2+ mobilization
Experimental: as §2

[5] = tested on: Hdh-TKRL; assay: CRE-Luc luciferase reporter assay in Hdh-TKRL-expressing HEK293 cells; assay type: cell-based, Haliotis discus hannai; conditions: for EC50: HEK293 cells, peptide treatment 6 h, Supplementary Table 4, read-out: EC50 for Hdh-TKRL activation, CRE-Luc reporter
Experimental: (§3) Human embryonic kidney 293 (HEK293) cells were maintained in Dulbecco’s modified Eagle medium (DMEM; Gibco, Loughborough, UK) containing 10% fetal bovine serum (FBS; Hyclone, GE Healthcare, Chicago, IL, USA) and 1% penicillin/streptomycin (P/S; Invitrogen) at 37°C in 5% CO2. Sixteen hours before transfection, HEK293 cells were seeded into 24-well plates (5 × 10^4 cells/well). Transfection and luciferase activities were analyzed as previously described ([39]). Briefly, HEK293 cells were transfected with 100 ng of pcDNA3-HA expression plasmid containing Hdh-TKR (pcDNA3-HA-Hdh-TKR) or vehicle pcDNA3-HA plasmid using 0.9 μL of a polyethyleneimine transfection reagent (Sigma-Aldrich, St. Louis, MO, USA), along with 100 ng of a luciferase reporter plasmid containing cAMP response element (CRE-Luc) or serum response element (SRE-Luc), and 100 ng of a pRSV-β-galactosidase expression plasmid as an internal control. At 3 h after transfection, the culture medium was replaced by new DMEM with 1% P/S and 10% FBS, and the HEK293 cells were cultured for a further 30 h and then maintained in DMEM without FBS for 16 h. Finally, the HEK293 cells were treated with synthesized peptides, forskolin (Sigma-Aldrich), 12-O-tetradecanoylphorbol-13-acetate (TPA; Sigma-Aldrich), or an equal volume of peptide-free medium (as vehicle control) for 6 h. Luciferase activity was analyzed using a microplate-luminometer (Berthold Tech., Bad Wildbad, Germany) and normalized to the β-galactosidase activity, detected by absorbance at 405 nm using a microplate reader (Tecan, Mannedorf, Switzerland).

[6] = tested on: Hdh-TKRL; assay: SRE-Luc luciferase reporter assay in Hdh-TKRL-expressing HEK293 cells; assay type: cell-based, Haliotis discus hannai; conditions: for EC50: HEK293 cells, peptide treatment 6 h, Supplementary Table 4, read-out: EC50 for Hdh-TKRL activation, SRE-Luc reporter
Experimental: as §3

[7] = tested on: Hdh-TKRS; assay: CRE-Luc luciferase reporter assay in Hdh-TKRS-expressing HEK293 cells; assay type: cell-based, Haliotis discus hannai; conditions: for EC50: HEK293 cells, peptide treatment 6 h, Supplementary Table 3, read-out: EC50 for Hdh-TKRS activation, CRE-Luc reporter
Experimental: as §3

[8] = tested on: Hdh-TKRS; assay: SRE-Luc luciferase reporter assay in Hdh-TKRS-expressing HEK293 cells; assay type: cell-based, Haliotis discus hannai; conditions: for EC50: HEK293 cells, peptide treatment 6 h, Supplementary Table 3, read-out: EC50 for Hdh-TKRS activation, SRE-Luc reporter
Experimental: as §3

[9] = molecular target: Hdh-TKRL (tachykinin receptor, long isoform) (Haliotis discus hannai)
[10] = molecular target: Hdh-TKRS (tachykinin receptor, short isoform) (Haliotis discus hannai)
[11] = Hdh-TKRL-transfected HEK293 cells, n = 3
[12] = Hdh-TKRS-transfected HEK293 cells, n = 3

Molecule: COc1ccc2c(c1)c(C1=C(c3c[nH]c4ccccc34)C(=O)NC1=O)cn2CCCN(C)C [Gö6983]
effect of inhibitor on Hdh-TKRL-mediated phosphorylation of ERK1/2 [1]: almost abolished
effect of inhibitor on Hdh-TKRS-mediated phosphorylation of ERK1/2 [2]: almost abolished

EC50 [3]: 5.2 nM
EC50 [4]: 4 nM
EC50 [5]: 1100 nM
EC50 [6]: 141 nM
EC50 [7]: 180 nM
EC50 [8]: 3340 nM
Molecule: CC(C)[C@H](NC(=O)[C@H](Cc1ccccc1)NC(=O)CNC(=O)[C@H](Cc1ccccc1)NC(=O)[C@H](Cc1c[nH]cn1)NC(=O)[C@H](CCCNC(=N)N)NC(=O)CN)C(=O)NCC(=O)N[C@@H](CO)C(=O)N[C@@H](CCCNC(=N)N)C(N)=O [Hdh-TK2-1] (H-GRHFGFVGSR-NH2)

EC50 [3]: 1.1 nM
EC50 [4]: 1.7 nM
EC50 [5]: 284 nM
EC50 [6]: 155 nM
EC50 [7]: 15.1 nM
EC50 [8]: 171 nM
Molecule: CC(C)[C@H](NC(=O)CNC(=O)[C@H](Cc1c[nH]cn1)NC(=O)[C@H](Cc1ccccc1)NC(=O)CNC(=O)[C@H](Cc1ccccc1)NC(=O)[C@H](Cc1c[nH]cn1)NC(=O)[C@@H]1CCCN1C(=O)[C@@H]1CCC(=O)N1)C(=O)N[C@@H](CCCNC(=N)N)C(N)=O [Hdh-TK1-3] ([pGlu]PHFGFHGVR-NH2)

Molecule: O=S(=O)(NCCNC/C=C/c1ccc(Br)cc1)c1cccc2cnccc12 [H89]
effect of inhibitor on Hdh-TKRL-mediated phosphorylation of ERK1/2 [1]: decreased

Molecule: APGWamide [abalone APGWamide peptide used as a negative control, reference compound]
CRE-Luc reporter activity (in words) [5, 11]: did not activate
SRE-Luc reporter activity (in words) [6, 11]: did not activate
CRE-Luc reporter activity (in words) [7, 12]: did not activate
SRE-Luc reporter activity (in words) [8, 12]: did not activate

EC50 of intracellular Ca2+ mobilization (aequorin luminescence) in Hdh-TKRL-transfected CHO-K1 cells [9]: 9.4 nM
EC50 of intracellular Ca2+ mobilization (aequorin luminescence) in Hdh-TKRS-transfected CHO-K1 cells [10]: 14.7 nM
B1: Hdh-TK1-1 (peptide)
peptide: FGYVGSR-NH2

EC50 of intracellular Ca2+ mobilization (aequorin luminescence) in Hdh-TKRL-transfected CHO-K1 cells [9]: 32 nM
EC50 of intracellular Ca2+ mobilization (aequorin luminescence) in Hdh-TKRS-transfected CHO-K1 cells [10]: 46 nM
B2: Hdh-TK1-2 (peptide)
peptide: TELGFGYVGSR-NH2

EC50 of intracellular Ca2+ mobilization (aequorin luminescence) in Hdh-TKRL-transfected CHO-K1 cells [9]: 0.7 nM
EC50 of intracellular Ca2+ mobilization (aequorin luminescence) in Hdh-TKRS-transfected CHO-K1 cells [10]: 1.2 nM
B3: Hdh-TK2-2 (peptide)
peptide: KPHFGFHGSR-NH2

EC50 of intracellular Ca2+ mobilization (aequorin luminescence) in Hdh-TKRL-transfected CHO-K1 cells [9]: 5.2 nM
EC50 of intracellular Ca2+ mobilization (aequorin luminescence) in Hdh-TKRS-transfected CHO-K1 cells [10]: 4 nM
B4: Hdh-TK2-1 (peptide)
peptide: GRHFGFVGSR-NH2

EC50 of intracellular Ca2+ mobilization (aequorin luminescence) in Hdh-TKRL-transfected CHO-K1 cells [9]: 1.1 nM
EC50 of intracellular Ca2+ mobilization (aequorin luminescence) in Hdh-TKRS-transfected CHO-K1 cells [10]: 1.7 nM
B5: Hdh-TK1-3 (peptide)
peptide: [pGlu]PHFGFHGVR-NH2
SMILES: CC(C)[C@H](NC(=O)CNC(=O)[C@H](Cc1c[nH]cn1)NC(=O)[C@H](Cc1ccccc1)NC(=O)CNC(=O)[C@H](Cc1ccccc1)NC(=O)[C@H](Cc1c[nH]cn1)NC(=O)[C@@H]1CCCN1C(=O)[C@@H]1CCC(=O)N1)C(=O)N[C@@H](CCCNC(=N)N)C(N)=O
